Data as given in article PMC11249646, “Small-Molecule Disruptors of the Interaction between Calcium- and Integrin-Binding Protein 1 and Integrin αIIbβ3 as Novel Antiplatelet Agents” (ACS Pharmacology & Translational Science, 2024).
Read-outs that look alike come from different tables or passages of the source.

What was measured:
Assay type in all cases: binding
[1] = biological target: T1, CIB1 and αIIb interaction (GST-CIB1 : F-αIIb peptide) (Homo sapiens, UniProt Q99828); experiment: FP assay, 384-well format (screen); set-up: 384-well SCREEN Efficacy (%): concentration or dose not given beside the values; conditions: F-αIIb peptide; for 384-well SCREEN Confirm?: YES/NO; for IC50: read-out: 384-well SCREEN IC50
T1 construct: made in house; host or cells: BL-21 plus RIL cells (E. coli)
T1 sequence (Q99828 1-191): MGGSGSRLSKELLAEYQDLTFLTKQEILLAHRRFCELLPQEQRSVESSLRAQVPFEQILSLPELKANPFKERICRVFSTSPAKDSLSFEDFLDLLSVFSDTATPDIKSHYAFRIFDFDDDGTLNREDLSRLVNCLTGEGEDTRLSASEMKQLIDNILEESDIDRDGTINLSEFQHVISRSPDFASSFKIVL

[2] = biological target: T2, GST-CIB1 : F-scrambled peptide (Homo sapiens, UniProt Q99828); experiment: FP scrambled-peptide counter screen, 384-well format; conditions: F-scrambled peptide; for IC50: read-out: 384-well COUNTERSCREEN IC50
T2 construct: made in house; host or cells: BL-21 plus RIL cells (E. coli)
T2 sequence (Q99828 1-191): T1 sequence (Q99828 1-191)

[3] = biological target: T3, CIB1 and αIIb interaction (CIB1-GST : F-αIIb peptide) (Homo sapiens, UniProt Q99828); experiment: FP assay, 1536-well qHTS format (primary and confirmatory screen)
T3 construct: made in house; host or cells: BL-21 plus RIL cells (E. coli)
T3 sequence (Q99828 1-191): T1 sequence (Q99828 1-191)

[4] = biological target: T2, GST-CIB1 : F-scrambled peptide; experiment: FP scrambled-peptide counter screen, 1536-well format; conditions: for IC50: read-out: IC50 [μM] (counterscreen)
[5] = qHTS primary screen hits, Table S2, negative = inhibition
[6] = qHTS primary screen hits, Table S2, negative sign = inhibitory curve
[7] = qHTS primary screen hits, Table S2, read-out: IC50
[8] = Table S3, counterscreen, qHTS curve class, a negative sign marks inhibitory curves
[9] = Table S3, counterscreen, negative = inhibition
[10] = Table S3, confirmatory screen, YES/NO call
[11] = Table S3, confirmatory screen, qHTS curve class, a negative sign marks inhibitory curves
[12] = Table S3, confirmatory screen, negative = inhibition
[13] = qHTS FP screen hits, Table S2, negative = inhibition
[14] = qHTS FP screen hits, Table S2, one class per curve where COUNT > 1, negative sign = inhibitory curve
[15] = qHTS FP screen hits, Table S2, read-out: IC50
[16] = qHTS primary screen hits, Table S2, negative sign = inhibitory curve, several classes where COUNT > 1

| Structure (SMILES) | 384-well SCREEN Efficacy (%) [1] [%] | 384-well SCREEN Confirm? [1] | IC50 [1] [µM] | 384-well COUNTERSCREEN Efficacy (%) [2] [%] | IC50 [2] [µM] | Efficacy (%) [3, 5] [%] | Curve Class [3, 6] | IC50 [3, 7] [µM] | Curve Class (counterscreen) [4, 8] | Efficacy (%) (counterscreen) [4, 9] | IC50 ([4]; Table S3, counterscreen) [µM] | Curve Class (confirmatory screen) [3, 11] | Efficacy (%) (confirmatory screen) [3, 12] | Efficacy (%) [3, 13] [%] | Curve Class [3, 14] | IC50 [3, 15] [µM] | also measured |
| --- | --- | --- | --- | --- | --- | --- | --- | --- | --- | --- | --- | --- | --- | --- | --- | --- | --- |
| NS(=O)(=O)c1cccc2c1c([N+](=O)[O-])cc1nc(O)c([O-])nc12.[Na+] [NCGC00024961-03] | 70 | YES | 9.1 | 70 | 7.4 | -46 | -1.2 | 5 |  |  |  |  |  |  |  |  |  |
| OCCN(CCO)c1nc(N2CCCCC2)c2nc(N(CCO)CCO)nc(N3CCCCC3)c2n1 [NCGC00015385-15] | 175 | YES | 22.2 | 200 | 22.2 | -172 | -1.1 | 12.7 |  |  |  |  |  |  |  |  |  |
| O=C(O)C1=CC(=C(c2ccc(O)c(C(=O)O)c2)c2ccc(O)c(C(=O)O)c2)C=CC1=O [NCGC00015040-05] | 45 | YES | 4.6 | 15 | > 120 | -33 | -1.2 | 3.2 |  |  |  |  |  |  |  |  | 384-well COUNTERSCREEN Confirm? ([2]; *: Curve in opposite direction): YES |
| C=C1C(=O)OC2C(OC(=O)C=C(C)C)C(C)=C3C(=O)C=C(C)C3C(O)C12 (stereo not drawn) [NCGC00380563-01] |  |  |  |  |  |  |  |  | -1.2 | -47 | 2.2 | -1.2 | -43 | -32 | -1.2 | 2.5 | Confirm? (confirmatory screen) [3, 10]: YES; IC50 ([3]; Table S3, confirmatory screen, read-out: IC50 [μM] (confirmatory screen)): 2 µM |
| Cc1ccc(C(=O)NC(c2ccco2)c2cc(Cl)c3cccnc3c2O)cc1 (stereo not drawn) [NCGC00188372-01] |  |  |  |  |  | -23 | -1.4 | 31.6 |  | 42 | 89.1 | 4 | -11 |  |  |  |  |
| Cc1cnc(-c2ccccc2C(C)C)nc1NCc1ccc(-c2ccc(F)nc2)cc1.O=C(O)C(F)(F)F [NCGC00253893-01] |  |  |  |  |  | -52 |  | 50.1 |  |  |  |  |  |  |  |  | Efficacy (%) (counterscreen) ([4]; counterscreen): -90%; Curve Class (counterscreen) ([4]; counterscreen, qHTS curve class, negative sign = inhibitory curve): -2.1; IC50 ([4]; counterscreen): 44.7 µM; Efficacy (%) (confirmatory screen) ([3]; confirmatory screen): -124%; Confirm? (confirmatory screen) ([3]; confirmatory screen, YES/NO): YES; Curve Class (confirmatory screen) ([3]; confirmatory screen, qHTS curve class, negative sign = inhibitory curve): -2.1; IC50 ([3]; confirmatory screen, read-out: IC50 [μM] (confirmatory screen)): 112 µM; Curve Class [3, 16]: -2.4 |
| O=C(O)C(F)(F)F.O=C1CCCC2=C1C1(CCOCC1)N=C(Nc1nc3ccccc3o1)N2 [NCGC00188584-01] |  |  |  |  |  |  |  |  |  |  |  |  |  | -26 |  | 15.8 | COUNTERSCREEN Efficacy (%) ([4]; counterscreen): -16%; COUNTERSCREEN Curve Class ([4]; counterscreen, qHTS curve class): 4; CONFIRMATORY SCREEN Efficacy (%) ([3]; confirmatory screen): 0%; CONFIRMATORY SCREEN Curve Class ([3]; confirmatory screen, qHTS curve class): 4 |
| C/C(=C\c1ccc2c(c1)OCO2)C1Nc2cccc3cccc(c23)N1 [NCGC00182904-03] |  |  |  |  |  | -34 |  | 35.5 | -1.2 | -77 | 12.6 | 4 | -33 |  |  |  | Confirm? (counterscreen) ([4]; Table S3, counterscreen, YES/NO call): YES; Curve Class [3, 16]: -2.4 |
| COC(=O)c1ccc(O)c2ncc(-c3ccc(C(=O)NCCCN(C)C)cc3)cc12.O=C(O)C(F)(F)F [NCGC00189510-01] |  |  |  |  |  |  |  |  | 3 | 226 | 89.1 | 4 | -26 | -71 | -2.2 | 44.7 |  |
| COc1ccc2nc3[nH]nc(C)c3c(NCCOCCO)c2c1 [NCGC00384193-04] |  |  |  |  |  |  |  |  | -2.2 | -75 | 89.1 | -2.2 | -47 | -75 | -2.2 | 50.1 | Confirm? (confirmatory screen) [3, 10]: YES |
